Experimental data published in ChEMBL document CHEMBL5137023, “Discovery of 2H-benzo[b][1,4]oxazin-3(4H)-one derivatives as potent and selective CDK9 inhibitors that enable transient target engagement for the treatment of hematologic malignancies” (Eur J Med Chem, 2022).
Converted amounts (≈) assume the structure as drawn. The source made the active and inactive calls. No cut-off for these calls is given here.

What was measured:
MV4-11 [1] = experiment: Antiproliferative activity against human MV4-11 cells assessed as inhibition of cell growth incubated for 72 hrs by CTG- luminescence assay; type: functional, cell-based; conditions: MV4-11, 72 h
[2] = AUC(0 to infinity) in Sprague-Dawley rat at 1 mg/kg, iv bolus injection measured upto 24 hrs by LC-MS/MS analysis; type: ADME, organism-based; parameters: time < 24 hrs, dose 1 mg/kg, route iv; conditions: in vivo
CDK9/cyclin T1 = CDK9/cyclin T1 (Homo sapiens, UniProt P50750); experiment: Inhibition of CDK9/Cyclin T1 (unknown origin) preincubated for 10 mins followed by ATP and CTD3 addition and measured after 30 mins by mobility shift assay; type: protein-complex assay
[3] = Kinetic solubility of the compound in pH 7.4 PBS buffer incubated for 24 hrs under shaking condition by HPLC analysis; type: physicochemical; conditions: read-out: Kinetic_solubility
[4] = AUC(0 to t) in Sprague-Dawley rat at 1 mg/kg, iv bolus injection measured upto 24 hrs by LC-MS/MS analysis; type: ADME, organism-based; parameters: dose 1 mg/kg, time < 24 hrs, route iv; conditions: in vivo
[5] = Initial plasma concentration in Sprague-Dawley rat at 1 mg/kg, iv bolus injection measured upto 24 hrs by LC-MS/MS analysis; type: ADME, organism-based
[6] = Volume of distribution at steady state in Sprague-Dawley rat at 1 mg/kg, iv bolus injection measured upto 24 hrs by LC-MS/MS analysis; type: ADME, organism-based; conditions: in vivo, read-out: Vdss
[7] = MRT(0 to t) in Sprague-Dawley rat at 1 mg/kg, iv bolus injection measured upto 24 hrs by LC-MS/MS analysis; type: ADME, organism-based; conditions: in vivo
[8] = MRT(0 to infinity) in Sprague-Dawley rat at 1 mg/kg, iv bolus injection measured upto 24 hrs by LC-MS/MS analysis; type: ADME, organism-based; conditions: in vivo
[9] = Clearance in Sprague-Dawley rat at 1 mg/kg, iv bolus injection measured upto 24 hrs by LC-MS/MS analysis; type: ADME, organism-based; conditions: in vivo
[10] = Elimination rate constant in Sprague-Dawley rat at 1 mg/kg, iv bolus injection measured upto 24 hrs by LC-MS/MS analysis; type: ADME, organism-based; conditions: in vivo
[11] = Half life in Sprague-Dawley rat at 1 mg/kg, iv bolus injection measured upto 24 hrs by LC-MS/MS analysis; type: ADME, organism-based; conditions: in vivo
MV4-11 [12] = experiment: Inhibition of RNA polymerase 2 phosphorylation at Ser2 residue in human MV4-11 cells at 1 uM incubated for 24 hrs by Western blot analysis; type: cell-based
MV4-11 [13] = experiment: Downregulation of Mcl-1 expression in human MV4-11 cells at 1 uM incubated for 24 hrs by Western blot analysis; type: functional, cell-based
MV4-11 [14] = experiment: Downregulation of c-Myc expression in human MV4-11 cells at 1 uM incubated for 24 hrs by Western blot analysis; type: functional, cell-based
MV4-11 [15] = experiment: Antiproliferative activity against human MV4-11 cells assessed as inhibition of cell growth at 0.37 uM incubated for 72 hrs by CTG- luminescence assay relative to control; type: functional

Sequence of CDK9/cyclin T1 (O60563 whole entry): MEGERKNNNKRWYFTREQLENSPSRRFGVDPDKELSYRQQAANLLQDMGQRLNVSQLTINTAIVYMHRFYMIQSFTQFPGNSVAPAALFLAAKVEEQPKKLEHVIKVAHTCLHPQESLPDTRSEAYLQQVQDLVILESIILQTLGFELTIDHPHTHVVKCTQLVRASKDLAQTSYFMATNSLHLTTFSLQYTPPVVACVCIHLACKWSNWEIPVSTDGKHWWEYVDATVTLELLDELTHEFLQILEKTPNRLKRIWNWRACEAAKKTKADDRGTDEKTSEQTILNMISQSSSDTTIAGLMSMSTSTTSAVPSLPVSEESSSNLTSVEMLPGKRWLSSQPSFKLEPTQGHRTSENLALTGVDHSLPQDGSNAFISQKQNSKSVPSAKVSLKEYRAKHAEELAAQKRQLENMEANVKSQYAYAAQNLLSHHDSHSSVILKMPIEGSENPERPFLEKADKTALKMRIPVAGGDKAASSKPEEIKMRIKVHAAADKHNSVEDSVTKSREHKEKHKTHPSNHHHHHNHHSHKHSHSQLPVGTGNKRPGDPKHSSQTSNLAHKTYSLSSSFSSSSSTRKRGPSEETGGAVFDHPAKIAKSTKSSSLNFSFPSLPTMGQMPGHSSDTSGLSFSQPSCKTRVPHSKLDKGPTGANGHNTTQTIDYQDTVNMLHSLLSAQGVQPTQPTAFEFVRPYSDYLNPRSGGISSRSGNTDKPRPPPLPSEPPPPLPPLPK
Sequence of CDK9/cyclin T1 (P50750 whole entry): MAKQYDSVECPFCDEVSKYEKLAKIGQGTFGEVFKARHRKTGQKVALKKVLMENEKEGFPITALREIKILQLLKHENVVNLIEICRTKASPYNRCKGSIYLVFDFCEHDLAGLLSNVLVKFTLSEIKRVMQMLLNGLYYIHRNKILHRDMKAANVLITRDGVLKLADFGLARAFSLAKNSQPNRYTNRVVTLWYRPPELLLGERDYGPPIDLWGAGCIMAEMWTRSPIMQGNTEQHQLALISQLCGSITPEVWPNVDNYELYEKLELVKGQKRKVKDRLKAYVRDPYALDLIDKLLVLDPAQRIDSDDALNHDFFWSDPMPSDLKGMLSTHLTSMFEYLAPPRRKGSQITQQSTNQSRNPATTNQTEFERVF

Row | Compound | IC50 (MV4-11 [1]) [nM] | IC50 (CDK9/cyclin T1) [nM] | also measured
1 | CCN1C(=O)COc2c(CN3CCN(S(C)(=O)=O)CC3)cc(Nc3ncc(F)c(-c4ccc(F)cc4OC)n3)cc21 | 15 | 3 | AUC(0-inf) [2]: 246 ng·h/mL; solubility kinetic at 24 h [3]: 30.5 µg/mL (≈ 51.8 µM); AUC(0-t) at 24 h [4]: 245 ng·h/mL; C0 at 24 h [5]: 1060 ng/mL; Vd [6]: 1.01 L/kg; MRT last at 24 h [7]: 14.4 min; MRT inf [8]: 14.8 min; clearance [9]: 68.1 mL/min/kg; k el at 24 h [10]: 0.000728 s⁻¹; half-life [11]: 15.9 min
2 | CCN1C(=O)COc2c(CN3CCCCC3)cc(Nc3ncc(F)c(-c4ccc(F)cc4OC)n3)cc21 | 50 | 2.7 | –
3 | CCN1C(=O)COc2c(CN3CCOCC3)cc(Nc3nccc(-c4ccc5nc(C)n(C(C)C)c5c4)n3)cc21 | – | 23 | –
4 | CN1CC[C@H](c2c(O)cc(O)c3c(=O)cc(-c4ccccc4Cl)oc23)[C@H](O)C1 | – | – | inhibition (MV4-11 [12]): Active; Activity (MV4-11 [13]): Active; Activity (MV4-11 [14]): Active
5 | CCN1CCN(Cc2cc(Nc3ncc(F)c(-c4ccc(F)cc4OC)n3)cc3c2OCC(=O)N3CC)CC1 | 142 | 4.4 | –
6 | CCN1C(=O)COc2c(CN3CCOCC3)cc(Nc3nccc(-c4cn(C)c5ccccc45)n3)cc21 | – | 39 | –
7 | CCN(CC)Cc1cc(Nc2ncc(F)c(-c3ccc(F)cc3OC)n2)cc2c1OCC(=O)N2CC | 26 | 2.6 | AUC(0-inf) [2]: 111 ng·h/mL; solubility kinetic at 24 h [3]: 3.9 µg/mL (≈ 7.84 µM); AUC(0-t) at 24 h [4]: 107 ng·h/mL; C0 at 24 h [5]: 155 ng/mL; Vd [6]: 6.45 L/kg; MRT last at 24 h [7]: 36.7 min; MRT inf [8]: 41.3 min; clearance [9]: 168 mL/min/kg; k el at 24 h [10]: 0.0004 s⁻¹; half-life [11]: 29.8 min
8 | CCN1C(=O)COc2c(CN3CCC(N(C)C)C3)cc(Nc3ncc(F)c(-c4ccc(F)cc4OC)n3)cc21 (centres undefined) | 124 | 3.7 | –
9 | CCN1C(=O)COc2c(CN(C)CCNC)cc(Nc3ncc(F)c(-c4ccc(F)cc4OC)n3)cc21 | 89 | 2.5 | –
10 | CCN1C(=O)COc2c(CN3CCOCC3)cc(Nc3nccc(-c4cccnc4)n3)cc21 | 306 | 6.7 | –
11 | CCN1C(=O)COc2c(CN3CCN(C)CC3)cc(Nc3ncc(F)c(-c4ccc(F)cc4OC)n3)cc21 | 253 | 5.4 | –
12 | CCN1C(=O)COc2c(CN3CCC(N4CCOCC4)CC3)cc(Nc3ncc(F)c(-c4ccc(F)cc4OC)n3)cc21 | 109 | 2.1 | –
13 | CCN1C(=O)COc2c(CN3CCOCC3)cc(Nc3nccc(-c4ccc5nnn(C(C)C)c5c4)n3)cc21 | 184 | 13 | –
14 | CCN1C(=O)COc2c(CN3CCSCC3)cc(Nc3ncc(F)c(-c4ccc(F)cc4OC)n3)cc21 | 130 | 3.6 | –
15 | CCN1C(=O)COc2c(CN(C)CCOC)cc(Nc3ncc(F)c(-c4ccc(F)cc4OC)n3)cc21 | 65 | 2.3 | –
16 | CCN1C(=O)COc2c(CN(C)CCN(C)C)cc(Nc3ncc(F)c(-c4ccc(F)cc4OC)n3)cc21 | 143 | 2.2 | –
17 | CCN1C(=O)COc2c(CN3CCOCC3)cc(Nc3nccc(-c4ccc(F)cc4OC)n3)cc21 | 228 | 2.6 | –
18 | CCN1C(=O)COc2c(CN3CCN(C4COC4)CC3)cc(Nc3ncc(F)c(-c4ccc(F)cc4OC)n3)cc21 | 105 | 1.6 | –
19 | CCN1C(=O)COc2c(CN3CCOCC3)cc(Nc3nccc(-c4ccc5nn(C)c(C(C)C)c5c4)n3)cc21 | – | 21 | –
20 | CCN1C(=O)COc2c(CN3CCOC[C@H]3C)cc(Nc3ncc(F)c(-c4ccc(F)cc4OC)n3)cc21 | 364 | 1.9 | –
21 | CCN1C(=O)COc2c(CN3CCOCC3)cc(Nc3nccc(-c4ccc(F)cc4OCc4ccccc4)n3)cc21 | – | > 100 | –
22 | CCN1C(=O)COc2c(CN3CCOCC3)cc(Nc3cc(-c4ccc(F)cc4OC)c(Cl)cn3)cc21 | – | 80 | –
23 | CCN1C(=O)COc2c(CN3CCOCC3)cc(Nc3ncc(F)c(-c4ccc(F)cc4OC)n3)cc21 | 105 | 1.1 | –
24 | CCN1C(=O)COc2c(CN3CCN(C(C)C)CC3)cc(Nc3ncc(F)c(-c4ccc(F)cc4OC)n3)cc21 | 149 | 3.4 | –
25 | CCN1C(=O)COc2c(CN3CCNCC3)cc(Nc3ncc(F)c(-c4ccc(F)cc4OC)n3)cc21 | 128 | 4.2 | –
26 | CCN1C(=O)COc2c(CN3CCOCC3)cc(Nc3cc(-c4ccc(F)cc4OC)c(F)cn3)cc21 | – | 42 | –
27 | CCN1C(=O)COc2c(CN3CCS(=O)(=O)CC3)cc(Nc3ncc(F)c(-c4ccc(F)cc4OC)n3)cc21 | – | 6 | inhibition at 0.37 µM (MV4-11 [15]): 15%
